Where two headings read alike, the source gives them in different places.
Legend:
wild type (WT) PaSAHase [1] = target: T1, wild type (WT) PaSAHase (Pseudomonas aeruginosa, UniProt Q9I685); type: biochemical; conditions: WT enzyme; for kcat/KM: 100 mM MeCl, 25 mM HEPES·MeOH pH 7.5, substrate SAH, 293 K, ± SEM
T1 construct: His-tag with TEV site (from vector pMCSG57) (N, cleaved yes); made in house; host or cells: E. coli BL21-CodonPlus(DE3)-RIPL
Protocol: (§1) Assays for PaSAHase activity in the hydrolytic direction were carried out spectrophotometrically and the rate of L-homocysteine (Hcy) formation was measured by monitoring its reaction with 5,5′-dithiobis(2-nitrobenzoic acid) (DTNB)[21]. Assays were performed in 3 mL volume in a buffer containing 100 mM MeCl (where Me^+ corresponds to Li^+, Na^+, K^+, Rb^+, or Cs^+ ion) and 25 mM HEPES·MeOH pH 7.5, or a buffer containing 100 mM Tris·HCl pH 7.5. For the Q65A mutein, the experiments were conducted in a buffer containing 100 mM KCl and 25 mM HEPES·KOH pH 7.5. The buffers were supplemented with six units of adenosine deaminase, 100 μM DTNB, and 0.32 μM of PaSAHase or its mutein. The reaction was initiated by the addition of S-adenosyl-L-homocysteine (SAH) at a final concentration from 2.5 to 200 μM. The conversion of Hcy to Hcy-TNB was carried out at 293 K. The reaction progress was measured for one minute and monitored at 412 nm using a U-3900H spectrophotometer (Hitachi). Initial velocity parameters were estimated from the linear region of the recorded curve.
(§2) For the inhibition study, PaSAHase (0.35 μM) in a buffer containing 100 mM KCl and 25 mM Tris·HCl pH 7.5 was incubated with Zn^2+ at different concentrations, ranging from 0.165 to 20 μM. The reaction was initiated by the addition of SAH at a final concentration of 85 μM. The enzymatic activity was followed in the hydrolytic direction by monitoring homocysteine formation via its reaction with DNTB to determine the IC50 constant. For the sample without the addition of Zn^2+ ions, 100% activity was assigned. All measurements were performed in duplicates. The experimental data were analyzed with the GraFit 7.0 software (Erithacus) to obtain the kinetic parameters of the enzymatic reactions: substrate affinity (KM), activity (Vmax), as well as catalytic rate (kcat) or IC50 value for inhibition. The IC50-to-Ki converter[61] was applied to calculate the inhibition constant (Ki) for Zn^2+ ions using the noncompetitive model of inhibition.

Q65A PaSAHase [2] = target: T2, Q65A PaSAHase (Pseudomonas aeruginosa, UniProt Q9I685, Q65A); type: biochemical; conditions: Q65A mutein, 100 mM KCl, 25 mM HEPES·KOH pH 7.5, substrate SAH, 293 K; ± SEM
T2 construct: His-tag with TEV site (from vector pMCSG57) (N, cleaved yes); made in house; host or cells: E. coli BL21-CodonPlus(DE3)-RIPL
Protocol: as §1, §2

PaSAHase [3] = target: T3, PaSAHase (Pseudomonas aeruginosa, UniProt Q9I685); experiment: ITC titration of PaSAHase with metal ions (Zn^2+, K^+); type: binding
T3 construct: His-tag with TEV site (from vector pMCSG57) (N, cleaved yes); made in house; host or cells: E. coli BL21-CodonPlus(DE3)-RIPL
T3 sequence (Q9I685 1-469): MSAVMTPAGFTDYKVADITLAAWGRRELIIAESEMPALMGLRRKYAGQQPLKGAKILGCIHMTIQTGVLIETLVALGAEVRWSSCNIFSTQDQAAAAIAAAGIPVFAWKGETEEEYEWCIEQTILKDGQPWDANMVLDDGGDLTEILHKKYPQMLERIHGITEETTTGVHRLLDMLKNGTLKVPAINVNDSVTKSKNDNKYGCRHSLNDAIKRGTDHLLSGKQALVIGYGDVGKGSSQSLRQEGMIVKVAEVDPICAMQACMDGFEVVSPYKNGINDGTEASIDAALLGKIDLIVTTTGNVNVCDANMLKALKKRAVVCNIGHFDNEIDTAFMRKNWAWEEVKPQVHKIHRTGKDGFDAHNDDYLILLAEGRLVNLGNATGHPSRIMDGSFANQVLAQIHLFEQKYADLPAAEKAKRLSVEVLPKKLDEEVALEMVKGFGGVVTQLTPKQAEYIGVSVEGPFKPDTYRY
Protocol: (§3) ITC measurements were performed at 293 K using a MicroCal iTC200 calorimeter (GE Healthcare). For the adenosine binding studies, the wild type protein was dialyzed against a buffer containing 100 mM MeCl and 25 mM HEPES·MeOH pH 7.5, or an alkali-cation-free buffer containing 100 mM Tris·HCl pH 7.5. The experiment for the Q65A mutein was conducted in a buffer containing 100 mM KCl and 25 mM HEPES·KOH pH 7.5. The final protein concentrations were in the range of 100–120 µM. Adenosine was dissolved in the dialysis buffers to the concentrations of 0.6 to 1.0 mM. The K^+ ion binding study was conducted in 50 mM Tris·HCl pH 7.5 at PaSAHase concentration of 70 μM. The protein was titrated with 1 mM KCl in 50 mM Tris·HCl pH 7.5. The Zn^2+ ion binding study was conducted in a buffer containing 100 mM KCl and 50 mM Tris·HCl pH 7.5 at PaSAHase concentration of 45 μM. The protein was titrated with 2 mM ZnCl2. In all ITC experiments the ligand was injected to the protein solution (300 μL) in 2 µL aliquots until saturation was observed. The protein concentrations were estimated by the Bradford method and are presented for a single PaSAHase subunit. The raw ITC data were analyzed with the ORIGIN 7.0 software (OriginLab) to obtain the thermodynamic parameters of the complexation reactions: stoichiometry (N), dissociation constant (Kd), as well as changes in enthalpy (ΔH) and entropy (ΔS). For sigmoidal titration curves, the one set of sites model was fitted and N was obtained from the experiment. For hyperbolic curves, for which the determination of N is impossible, N was fixed while fitting the same model. All measurements were performed in duplicates.

PaSAHase [4] = target: T3, PaSAHase; experiment: Time course of PaSAHase inactivation by 2′-deoxyadenosine (NADH formation, spectrofluorimetric); type: biochemical
Protocol: The measurements were performed at 293 K using an F-7000 spectrofluorotometer (Hitachi) in the volume of 1 mL. Irreversible formation of the reduced form of the cofactor (NADH) was monitored spectrofluorometrically by excitation at 340 nm and measurement of emission at 460 nm, as described previously. The influence of K^+ and Rb^+ ions on the time-dependent inactivation of the enzyme was carried out for 15 μM PaSAHase in a buffer containing 100 mM KCl or RbCl, 25 mM HEPES·KOH or HEPES·RbOH pH 7.5, and 1 mM TCEP·HCl. In the first experiment, the reaction was initiated by the addition of 2′-deoxyadenosine to the final concentration of 5 mM. In the second experiment, the enzyme was incubated for 2 hours with 100 μM adenosine and subsequently 2′-deoxyadenosine was added at a final concentration of 200 μM. After one minute the reaction was monitored for 4000 seconds (first experiment) or until the intensity of fluorescence emission reached a plateau (second experiment). An analogous experiment was carried out to analyze the influence of Zn^2+ cations on the enzyme. […] The cofactor conversion reaction was initiated by the addition of 2′-deoxyadenosine to the final concentration of 5 mM and after one minute was monitored for 5000 seconds.

PaSAHase [5] = target: T3, PaSAHase; experiment: Inhibition of PaSAHase by Zn^2+ ions (DTNB assay); type: biochemical; conditions: 100 mM KCl; for Ki: calculated from IC50 with IC50-to-Ki converter, noncompetitive model, 25 mM Tris·HCl pH 7.5, SAH 85 μM, enzyme 0.35 μM, read-out: inhibitory constant Ki
Protocol: as §2

wild type (WT) PaSAHase [6] = target: T1, wild type (WT) PaSAHase; experiment: ITC titration of wild type PaSAHase with adenosine; type: binding; conditions: for stoichiometry (N) / ΔH / ΔS / Kd: pH 7.5, 293 K; for Kd: dissociation constant Kd
Protocol: as §3

Q65A PaSAHase [7] = target: T2, Q65A PaSAHase; experiment: ITC titration of Q65A PaSAHase with adenosine; type: binding
Protocol: as §3

human placental SAHase = target: human placental SAHase; design: method as in PMID 17892301; conditions: read-out: inhibition constant; cited from earlier work
[8] = target: the molecule itself; experiment: SEC; Superdex 200 gel filtration in buffer D (100 mM KCl, 25 mM HEPES-KOH pH 7.5, 1 mM TCEP-HCl), after reconstitution with NAD+
[9] = Q65A, 100 mM K^+, pH 7.5, 293 K

T2 sequence (Q9I685 whole entry Q65A): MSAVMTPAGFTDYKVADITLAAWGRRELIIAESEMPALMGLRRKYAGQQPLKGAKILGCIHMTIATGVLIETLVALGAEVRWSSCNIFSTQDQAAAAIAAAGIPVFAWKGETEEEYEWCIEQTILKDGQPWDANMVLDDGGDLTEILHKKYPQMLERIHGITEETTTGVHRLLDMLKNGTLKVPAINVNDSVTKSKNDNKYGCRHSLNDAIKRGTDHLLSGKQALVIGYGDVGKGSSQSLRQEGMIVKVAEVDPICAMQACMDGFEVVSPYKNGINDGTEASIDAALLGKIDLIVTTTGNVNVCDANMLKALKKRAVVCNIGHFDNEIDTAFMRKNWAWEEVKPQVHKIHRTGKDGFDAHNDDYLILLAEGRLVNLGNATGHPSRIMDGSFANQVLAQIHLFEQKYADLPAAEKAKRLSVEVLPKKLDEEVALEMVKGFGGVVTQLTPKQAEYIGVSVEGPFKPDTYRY

[Cs+] [Cs^+]
kcat/KM (wild type (WT) PaSAHase [1]): 6668 ± 333 M⁻¹ s⁻¹

[K+] [K^+]
kcat/KM (Q65A PaSAHase [2]): 5322 ± 358 M⁻¹ s⁻¹
kcat/KM (wild type (WT) PaSAHase [1]): 72502 ± 4858 M⁻¹ s⁻¹
heat effect of ITC titration of ligand- and alkali-metal-free PaSAHase (PaSAHase [3]; 50 mM Tris·HCl pH 7.5, 70 μM PaSAHase, titrated with 1 mM KCl): No effect other than K^+ dilution heat

[Li+] [Li^+]
kcat/KM (wild type (WT) PaSAHase [1]): 731 ± 143 M⁻¹ s⁻¹

[Na+] [Na^+]
kcat/KM (wild type (WT) PaSAHase [1]): 8467 ± 940 M⁻¹ s⁻¹

[Rb+] [Rb^+]
kcat/KM (wild type (WT) PaSAHase [1]): 3568 ± 237 M⁻¹ s⁻¹
mode of inhibition (wild type (WT) PaSAHase [1]; 100 mM RbCl, kinetics with SAH): noncompetitive inhibitor
drop of kcat compared with K^+ (wild type (WT) PaSAHase [1]; relative to kcat in the presence of K^+): ~33 fold
rate of NADH formation compared with K^+ (PaSAHase [4]; enzyme first incubated with 100 μM adenosine, then 200 μM 2′-deoxyadenosine added, 100 mM RbCl): significantly lower

[Zn+2] [Zn^2+]
rate of NADH formation (PaSAHase [4]; 100 mM KCl, enzyme incubated with adenosine (200 μM) and ZnCl2 (1, 5 or 10 μM), then 5 mM 2′-deoxyadenosine): gradually decreased with increasing Zn^2+ concentration
mode of inhibition (PaSAHase [5]; 25 mM Tris·HCl pH 7.5): very strong noncompetitive inhibitor
Ki (PaSAHase [5]; listed as zinc): ~15 nM
Ki (PaSAHase [5]): 15 nM
stoichiometry of protein:Zn^2+ binding, per one subunit (PaSAHase [3]; 100 mM KCl, 50 mM Tris·HCl pH 7.5, 45 μM enzyme, 2 mM ZnCl2, 293 K): 0.90 ± 0.06
Kd (PaSAHase [3]; 100 mM KCl, 50 mM Tris·HCl pH 7.5, 45 μM enzyme, 2 mM ZnCl2, 293 K, read-out: apparent binding constant Kd): 12700 ± 2900 nM

Nc1ncnc2c1ncn2[C@@H]1O[C@H](CO)[C@@H](O)[C@H]1O [adenosine]
stoichiometry (N) (wild type (WT) PaSAHase [6]; 100 mM Cs^+): 0.94 ± 0.02
ΔH (wild type (WT) PaSAHase [6]; 100 mM Cs^+): -4.174 ± 0.115 kcal/mol
ΔS (wild type (WT) PaSAHase [6]; 100 mM Cs^+): 10.1 cal/mol/°
stoichiometry (N) (wild type (WT) PaSAHase [6]; 100 mM K^+): 0.80 ± 0.01
ΔH (wild type (WT) PaSAHase [6]; 100 mM K^+): -9.665 ± 0.237 kcal/mol
ΔS (wild type (WT) PaSAHase [6]; 100 mM K^+): −5.9 cal/mol/°
stoichiometry (N) (wild type (WT) PaSAHase [6]; 100 mM Na^+): 0.97 ± 0.02
ΔH (wild type (WT) PaSAHase [6]; 100 mM Na^+): -3.891 ± 0.114 kcal/mol
ΔS (wild type (WT) PaSAHase [6]; 100 mM Na^+): 9.8 cal/mol/°
stoichiometry (N) (wild type (WT) PaSAHase [6]; 100 mM Rb^+): 0.84 ± 0.01
ΔH (wild type (WT) PaSAHase [6]; 100 mM Rb^+): -8.935 ± 0.137 kcal/mol
ΔS (wild type (WT) PaSAHase [6]; 100 mM Rb^+): −4.2 cal/mol/°
Kd (wild type (WT) PaSAHase [6]; 100 mM Cs^+): 4700 ± 600 nM
Kd (wild type (WT) PaSAHase [6]; 100 mM K^+): 1200 ± 200 nM
Kd (wild type (WT) PaSAHase [6]; 100 mM Na^+): 8800 ± 1000 nM
Kd (wild type (WT) PaSAHase [6]; 100 mM Rb^+): 1800 ± 200 nM
heat effect of ITC titration (wild type (WT) PaSAHase [6]; in the absence of any alkali metals or the presence of Li^+ ions): immeasurably small
Kd (Q65A PaSAHase [7]): 7300 ± 400 nM
stoichiometry (N) (Q65A PaSAHase [7]; [9]): 0.236 ± 0.004
ΔH (Q65A PaSAHase [7]; [9]): -7.447 ± 0.167 kcal/mol

[Cu+2] [copper]
Ki (human placental SAHase): ~25 nM

B1: S-adenosyl-L-homocysteine hydrolase from Pseudomonas aeruginosa (enzyme, Pseudomonas aeruginosa PAO1)
chain: SNAMSAVMTPAGFTDYKVADITLAAWGRRELIIAESEMPALMGLRRKYAGQQPLKGAKILGCIHMTIQTGVLIETLVALGAEVRWSSCNIFSTQDQAAAAIAAAGIPVFAWKGETEEEYEWCIEQTILKDGQPWDANMVLDDGGDLTEILHKKYPQMLERIHGITEETTTGVHRLLDMLKNGTLKVPAINVNDSVTKSKNDNKYGCRHSLNDAIKRGTDHLLSGKQALVIGYGDVGKGSSQSLRQEGMIVKVAEVDPICAMQACMDGFEVVSPYKNGINDGTEASIDAALLGKIDLIVTTTGNVNVCDANMLKALKKRAVVCNIGHFDNEIDTAFMRKNWAWEEVKPQVHKIHRTGKDGFDAHNDDYLILLAEGRLVNLGNATGHPSRIMDGSFANQVLAQIHLFEQKYADLPAAEKAKRLSVEVLPKKLDEEVALEMVKGFGGVVTQLTPKQAEYIGVSVEGPFKPDTYRY
notes: short tripeptide (SNA-) cloning artifact that extends the N-terminus of the purified protein; S-adenosyl-L-homocysteine hydrolase, Pseudomonas aeruginosa PAO1; about 53 kDa by SDS-PAGE; Batches were either Zn2+-containing or freed of Zn2+ with TPEN; The vector pMCSG57 is named, the tag itself is not; also called PaSAHase; SAHase
stoichiometry N [8]: 4

Reference: article PMC6063907, “Metal-cation regulation of enzyme dynamics is a key factor influencing the activity of S-adenosyl-L-homocysteine hydrolase from Pseudomonas aeruginosa” (Scientific Reports, 2018)
